Columns and labels:
[1] = test system: phenylalanine aptamer (DNA, aptamer) CGACCGCGTTTCCCAAGAAAGCAAGTATTGGTTGGTCG; test: FFT-EIS electrochemical aptamer-based sensor; conditions: in vitro calibration; details only in supporting information
[2] = test system: vancomycin aptamer (DNA, aptamer) CGAGGGTACCGCAATAGTACTTATTGTTCGCCTATTGTGGGTCGG; test: FFT-EIS electrochemical aptamer-based sensor (ket titration); conditions: whole bovine blood, 37 °C; apparent; error is 95% confidence interval; Hill–Langmuir fit

binding [1] | KD [2] | SMILES
yes |  | N[C@@H](Cc1ccccc1)C(=O)O
 | 144 ± 31 µM | CN[C@H](CC(C)C)C(=O)N[C@H]1C(=O)N[C@@H](CC(N)=O)C(=O)N[C@H]2C(=O)N[C@H]3C(=O)N[C@H](C(=O)N[C@H](C(=O)O)c4cc(O)cc(O)c4-c4cc3ccc4O)[C@H](O)c3ccc(c(Cl)c3)Oc3cc2cc(c3O[C@@H]2O[C@H](CO)[C@@H](O)[C@H](O)[C@H]2O[C@H]2C[C@](C)(N)[C@H](O)[C@H](C)O2)Oc2ccc(cc2Cl)[C@H]1O

From article PMC10463274 (2023)
